Reference: patent US11564969B2, “Immunorhelin compounds for intracellular infections” (ISR IMMUNE SYSTEM REGULATION HOLDING AB (PUBL), priority 2017, dated 2023)
Square brackets hold non-standard residues; d marks the D form. Peptide text beside a SMILES is read from it. * marks the point of attachment. dHis(τ-Bn) = N[C@H](Cc1cn(Cc2ccccc2)cn1)C(=O)O; d2Nal = N[C@H](Cc1ccc2ccccc2c1)C(=O)O; pGlu = O=C1CC[C@@H](C(=O)O)N1; tBu = CC(C)(C)*

Experiments:
[1] = Solubility analysis in PBS (Analysis Method B); type: physicochemical; conditions: pH 7.4
Experimental: The solubility of compounds of the invention was tested as described in the general methods. Solubility was then graded according to a rating between 1 to 5, where 1 is most soluble and 5 is least soluble.

[2] = biological target: T1, GnRHR (Homo sapiens, UniProt P30968); conditions: 1000.0
T1 sequence (P30968 1-328): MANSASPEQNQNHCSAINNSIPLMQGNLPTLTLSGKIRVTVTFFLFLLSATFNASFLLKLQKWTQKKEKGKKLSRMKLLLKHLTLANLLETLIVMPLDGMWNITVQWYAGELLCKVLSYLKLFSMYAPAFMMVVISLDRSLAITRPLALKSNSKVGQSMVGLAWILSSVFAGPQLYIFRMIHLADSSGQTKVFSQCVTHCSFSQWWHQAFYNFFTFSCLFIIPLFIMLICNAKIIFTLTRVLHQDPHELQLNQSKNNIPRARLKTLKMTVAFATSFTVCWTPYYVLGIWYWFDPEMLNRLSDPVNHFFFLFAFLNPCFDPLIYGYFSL

Solubility grading [1]	GNRHR Stimulation at 1 μM [2]	SMILES
4	80 percentage	CCNC(=O)[C@@H]1CCCN1C(=O)[C@H](Cc1ccc(O)cc1)NC(=O)[C@H](Cc1c[nH]c2ccccc12)NC(=O)[C@@H](COC(C)(C)C)NC(=O)[C@H](Cc1ccc(O)cc1)NC(=O)[C@H](CO)NC(=O)[C@H](Cc1c[nH]c2ccccc12)NC(=O)[C@H](Cc1c[nH]cn1)NC(=O)[C@@H]1CCC(=O)N1 [Compound 12, pGlu-His-Trp-Ser-Tyr-D-Ser(tBu)-Trp-Tyr-Pro-NHEt] ([pGlu]HWSY[dS](tBu)WYP-NHEt)
3	87 percentage	CCNC(=O)[C@@H]1CCCN1C(=O)[C@H](Cc1ccc(O)cc1)NC(=O)[C@H](Cc1c[nH]c2ccccc12)NC(=O)[C@@H](COC(C)(C)C)NC(=O)[C@H](Cc1c[nH]cn1)NC(=O)[C@H](CO)NC(=O)[C@H](Cc1c[nH]c2ccccc12)NC(=O)[C@H](Cc1c[nH]cn1)NC(=O)[C@@H]1CCC(=O)N1 [Compound 13, pGlu-His-Trp-Ser-His-D-Ser(tBu)-Trp-Tyr-Pro-NHEt] ([pGlu]HWSH[dS](tBu)WYP-NHEt)
1	106 percentage	CC(C)C[C@H](NC(=O)[C@@H](Cc1ccc2ccccc2c1)NC(=O)[C@H](Cc1c[nH]cn1)NC(=O)[C@H](CO)NC(=O)[C@H](Cc1c[nH]c2ccccc12)NC(=O)[C@H](Cc1c[nH]cn1)NC(=O)[C@@H]1CCC(=O)N1)C(=O)N[C@@H](CCCNC(=N)N)C(=O)N1CCC[C@H]1C(=O)NCC(N)=O [Compound 23, pGlu-His-Trp-Ser-His-D-Nal-Leu-Arg-Pro-Gly-amide] ([pGlu]HWSH[d2Nal]LRPG-NH2)
5	87 percentage	N=C(N)NCCC[C@H](NC(=O)[C@H](Cc1c[nH]c2ccccc12)NC(=O)[C@@H](Cc1ccc2ccccc2c1)NC(=O)[C@H](Cc1ccc(O)cc1)NC(=O)[C@H](CO)NC(=O)[C@H](Cc1c[nH]c2ccccc12)NC(=O)[C@H](Cc1c[nH]cn1)NC(=O)[C@@H]1CCC(=O)N1)C(=O)N1CCC[C@H]1C(=O)NCC(N)=O [Compound 24, pGlu-His-Trp-Ser-Tyr-D-Nal-Trp-Arg-Pro-Gly-amide] ([pGlu]HWSY[d2Nal]WRPG-NH2)
4	82 percentage	CC(C)C[C@H](NC(=O)[C@@H](Cc1ccc2ccccc2c1)NC(=O)[C@H](Cc1ccc(O)cc1)NC(=O)[C@H](CO)NC(=O)[C@H](Cc1c[nH]c2ccccc12)NC(=O)[C@H](Cc1c[nH]cn1)NC(=O)[C@@H]1CCC(=O)N1)C(=O)N[C@@H](Cc1ccc(O)cc1)C(=O)N1CCC[C@H]1C(=O)NCC(N)=O [Compound 25, pGlu-His-Trp-Ser-Tyr-D-Nal-Leu-Tyr-Pro-Gly-amide] ([pGlu]HWSY[d2Nal]LYPG-NH2)
1	108 percentage	N=C(N)NCCC[C@H](NC(=O)[C@H](Cc1c[nH]c2ccccc12)NC(=O)[C@@H](Cc1ccc2ccccc2c1)NC(=O)[C@H](Cc1c[nH]cn1)NC(=O)[C@H](CO)NC(=O)[C@H](Cc1c[nH]c2ccccc12)NC(=O)[C@H](Cc1c[nH]cn1)NC(=O)[C@@H]1CCC(=O)N1)C(=O)N1CCC[C@H]1C(=O)NCC(N)=O [Compound 27, pGlu-His-Trp-Ser-His-D-Nal-Trp-Arg-Pro-Gly-amide] ([pGlu]HWSH[d2Nal]WRPG-NH2)
2	95 percentage	CC(C)C[C@H](NC(=O)[C@@H](Cc1ccc2ccccc2c1)NC(=O)[C@H](Cc1c[nH]cn1)NC(=O)[C@H](CO)NC(=O)[C@H](Cc1c[nH]c2ccccc12)NC(=O)[C@H](Cc1c[nH]cn1)NC(=O)[C@@H]1CCC(=O)N1)C(=O)N[C@@H](Cc1ccc(O)cc1)C(=O)N1CCC[C@H]1C(=O)NCC(N)=O [Compound 28, pGlu-His-Trp-Ser-His-D-Nal-Leu-Tyr-Pro-Gly-amide] ([pGlu]HWSH[d2Nal]LYPG-NH2)
1	12 percentage	NC(=O)CNC(=O)[C@@H]1CCCN1C(=O)[C@H](Cc1ccc(O)cc1)NC(=O)[C@H](Cc1c[nH]c2ccccc12)NC(=O)[C@@H](Cc1ccc2ccccc2c1)NC(=O)[C@H](Cc1ccc(O)cc1)NC(=O)[C@H](CO)NC(=O)[C@H](Cc1c[nH]c2ccccc12)NC(=O)[C@H](Cc1c[nH]cn1)NC(=O)[C@@H]1CCC(=O)N1 [Compound 30, pGlu-His-Trp-Ser-Tyr-D-Nal-Trp-Tyr-Pro-Gly-amide] ([pGlu]HWSY[d2Nal]WYPG-NH2)
2	67 percentage	NC(=O)CNC(=O)[C@@H]1CCCN1C(=O)[C@H](Cc1ccc(O)cc1)NC(=O)[C@H](Cc1c[nH]c2ccccc12)NC(=O)[C@@H](Cc1ccc2ccccc2c1)NC(=O)[C@H](Cc1c[nH]cn1)NC(=O)[C@H](CO)NC(=O)[C@H](Cc1c[nH]c2ccccc12)NC(=O)[C@H](Cc1c[nH]cn1)NC(=O)[C@@H]1CCC(=O)N1 [Compound 33, pGlu-His-Trp-Ser-His-D-Nal-Trp-Tyr-Pro-Gly-amide] ([pGlu]HWSH[d2Nal]WYPG-NH2)
1	102 percentage	CCNC(=O)[C@@H]1CCCN1C(=O)[C@H](CCCNC(=N)N)NC(=O)[C@H](CC(C)C)NC(=O)[C@@H](CC(C)C)NC(=O)[C@H](Cc1c[nH]cn1)NC(=O)[C@H](CO)NC(=O)[C@H](Cc1c[nH]c2ccccc12)NC(=O)[C@H](Cc1c[nH]cn1)NC(=O)[C@@H]1CCC(=O)N1 [Compound 42, pGlu-His-Trp-Ser-His-D-Leu-Leu-Arg-Pro-NHEt] ([pGlu]HWSH[dL]LRP-NHEt)
2	111 percentage	CCNC(=O)[C@@H]1CCCN1C(=O)[C@H](CCCNC(=N)N)NC(=O)[C@H](Cc1c[nH]c2ccccc12)NC(=O)[C@@H](CC(C)C)NC(=O)[C@H](Cc1ccc(O)cc1)NC(=O)[C@H](CO)NC(=O)[C@H](Cc1c[nH]c2ccccc12)NC(=O)[C@H](Cc1c[nH]cn1)NC(=O)[C@@H]1CCC(=O)N1 [Compound 44, pGlu-His-Trp-Ser-Tyr-D-Leu-Trp-Arg-Pro-NHEt] ([pGlu]HWSY[dL]WRP-NHEt)
2	105 percentage	CCNC(=O)[C@@H]1CCCN1C(=O)[C@H](Cc1ccc(O)cc1)NC(=O)[C@H](CC(C)C)NC(=O)[C@@H](CC(C)C)NC(=O)[C@H](Cc1ccc(O)cc1)NC(=O)[C@H](CO)NC(=O)[C@H](Cc1c[nH]c2ccccc12)NC(=O)[C@H](Cc1c[nH]cn1)NC(=O)[C@@H]1CCC(=O)N1 [Compound 45, pGlu-His-Trp-Ser-Tyr-D-Leu-Leu-Tyr-Pro-NHEt] ([pGlu]HWSY[dL]LYP-NHEt)
1	119 percentage	CCNC(=O)[C@@H]1CCCN1C(=O)[C@H](CCCNC(=N)N)NC(=O)[C@H](Cc1c[nH]c2ccccc12)NC(=O)[C@@H](CC(C)C)NC(=O)[C@H](Cc1c[nH]cn1)NC(=O)[C@H](CO)NC(=O)[C@H](Cc1c[nH]c2ccccc12)NC(=O)[C@H](Cc1c[nH]cn1)NC(=O)[C@@H]1CCC(=O)N1 [Compound 47, pGlu-His-Trp-Ser-His-D-Leu-Trp-Arg-Pro-NHEt] ([pGlu]HWSH[dL]WRP-NHEt)
2	118 percentage	CCNC(=O)[C@@H]1CCCN1C(=O)[C@H](Cc1ccc(O)cc1)NC(=O)[C@H](CC(C)C)NC(=O)[C@@H](CC(C)C)NC(=O)[C@H](Cc1c[nH]cn1)NC(=O)[C@H](CO)NC(=O)[C@H](Cc1c[nH]c2ccccc12)NC(=O)[C@H](Cc1c[nH]cn1)NC(=O)[C@@H]1CCC(=O)N1 [Compound 48, pGlu-His-Trp-Ser-His-D-Leu-Leu-Tyr-Pro-NHEt] ([pGlu]HWSH[dL]LYP-NHEt)
4	77 percentage	CCNC(=O)[C@@H]1CCCN1C(=O)[C@H](Cc1ccc(O)cc1)NC(=O)[C@H](Cc1c[nH]c2ccccc12)NC(=O)[C@@H](CC(C)C)NC(=O)[C@H](Cc1ccc(O)cc1)NC(=O)[C@H](CO)NC(=O)[C@H](Cc1c[nH]c2ccccc12)NC(=O)[C@H](Cc1c[nH]cn1)NC(=O)[C@@H]1CCC(=O)N1 [Compound 49, pGlu-His-Trp-Ser-Tyr-D-Leu-Trp-Tyr-Pro-NHEt] ([pGlu]HWSY[dL]WYP-NHEt)
1	105 percentage	CCNC(=O)[C@@H]1CCCN1C(=O)[C@H](Cc1ccc(O)cc1)NC(=O)[C@H](Cc1c[nH]c2ccccc12)NC(=O)[C@@H](CC(C)C)NC(=O)[C@H](Cc1c[nH]cn1)NC(=O)[C@H](CO)NC(=O)[C@H](Cc1c[nH]c2ccccc12)NC(=O)[C@H](Cc1c[nH]cn1)NC(=O)[C@@H]1CCC(=O)N1 [Compound 50, pGlu-His-Trp-Ser-His-D-Leu-Trp-Tyr-Pro-NHEt] ([pGlu]HWSH[dL]WYP-NHEt)
1	96 percentage	CCNC(=O)[C@@H]1CCCN1C(=O)[C@H](CCCNC(=N)N)NC(=O)[C@H](CC(C)C)NC(=O)[C@@H](Cc1cn(Cc2ccccc2)cn1)NC(=O)[C@H](Cc1c[nH]cn1)NC(=O)[C@H](CO)NC(=O)[C@H](Cc1c[nH]c2ccccc12)NC(=O)[C@H](Cc1c[nH]cn1)NC(=O)[C@@H]1CCC(=O)N1 [Compound 56, pGlu-His-Trp-Ser-His-D-Bhi-Leu-Arg-Pro-NHEt] ([pGlu]HWSH[dHis(τ-Bn)]LRP-NHEt)
4	85 percentage	CCNC(=O)[C@@H]1CCCN1C(=O)[C@H](Cc1ccc(O)cc1)NC(=O)[C@H](CC(C)C)NC(=O)[C@@H](Cc1cn(Cc2ccccc2)cn1)NC(=O)[C@H](Cc1ccc(O)cc1)NC(=O)[C@H](CO)NC(=O)[C@H](Cc1c[nH]c2ccccc12)NC(=O)[C@H](Cc1c[nH]cn1)NC(=O)[C@@H]1CCC(=O)N1 [Compound 59, pGlu-His-Trp-Ser-Tyr-D-Bhi-Leu-Tyr-Pro-NHEt] ([pGlu]HWSY[dHis(τ-Bn)]LYP-NHEt)
